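Each compound was tested at five concentrations against cells in 96-well plates for 48 hours. At the GI50, growth is halved.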 The source made the active and inactive calls. Cut-off read from the data, not from the text of the source: active = GI50 up to about 1.1 µM and inactive = higher.
Assays:
Assay in all cases: NCI-60 cell line screen, 48 h
PC-3 = test system: PC-3
KM12 = test system: KM12
MOLT-4 = test system: MOLT-4
MDA-MB-231 = test system: MDA-MB-231
MDA-N = test system: MDA-N
SNB-75 = test system: SNB-75
OVCAR-3 = test system: OVCAR-3
MDA-MB-435 = test system: MDA-MB-435
COLO 205 = test system: COLO 205
CCRF-CEM = test system: CCRF-CEM
A549 = test system: A549
U-251 = test system: U-251
SF-295 = test system: SF-295
HOP-92 = test system: HOP-92
SF-268 = test system: SF-268
OVCAR-5 = test system: OVCAR-5
TK-10 = test system: TK-10
ACHN = test system: ACHN
SR = test system: SR
BT-549 = test system: BT-549
UO-31 = test system: UO-31
NCI-H23 = test system: NCI-H23
SF-539 = test system: SF-539
CAKI-1 = test system: CAKI-1
SK-OV-3 = test system: SK-OV-3
IGROV-1 = test system: IGROV-1
NCI-H460 = test system: NCI-H460
LOX IMVI = test system: LOX IMVI
HCT-15 = test system: HCT-15
Malme-3M = test system: Malme-3M
NCI-H226 = test system: NCI-H226
RXF 393 = test system: RXF 393
M14 = test system: M14
HCT-116 = test system: HCT-116
OVCAR-8 = test system: OVCAR-8
T47D = test system: T47D
DU-145 = test system: DU-145
K562 = test system: K562
SW-620 = test system: SW-620
SK-MEL-28 = test system: SK-MEL-28
HT-29 = test system: HT-29
HCC 2998 = test system: HCC 2998
Hs-578T = test system: Hs-578T
NCI/ADR-RES = test system: NCI/ADR-RES
A498 = test system: A498
SNB-19 = test system: SNB-19
786-0 = test system: 786-0
NCI-H522 = test system: NCI-H522
SK-MEL-5 = test system: SK-MEL-5
OVCAR-4 = test system: OVCAR-4
HL-60 = test system: HL-60
MCF7 = test system: MCF7
UACC-62 = test system: UACC-62
HOP-62 = test system: HOP-62
UACC-257 = test system: UACC-257
SN12C = test system: SN12C
EKVX = test system: EKVX
RPMI-8226 = test system: RPMI-8226
SK-MEL-2 = test system: SK-MEL-2

C=C(C(=O)OC1C(CO)OC(OCC2CC[C@@H]3C[C@]4(OC(=O)C3=C)C(C)=CC(=O)C24)C(O)C1O)[C@@H]1CCC(CO)C2C(=O)C=C(C)[C@@]2(O)C1 (stereo partly drawn)
GI50 (PC-3): 1.54 µM (inactive) | GI50 (KM12): 2.55 µM (inactive) | GI50 (MOLT-4): 693 nM (active) | GI50 (MDA-MB-231): 1.64 µM (inactive) | GI50 (MDA-N): 1.44 µM (inactive) | GI50 (SNB-75): 13.8 µM (inactive) | GI50 (OVCAR-3): 2.02 µM (inactive) | GI50 (MDA-MB-435): 2.09 µM (inactive) | GI50 (COLO 205): 280 nM (active) | GI50 (CCRF-CEM): 269 nM (active) | GI50 (A549): 4.37 µM (inactive) | GI50 (U-251): 4.68 µM (inactive) | GI50 (SF-295): 17.1 µM (inactive) | GI50 (HOP-92): 2.63 µM (inactive) | GI50 (SF-268): 3.4 µM (inactive) | GI50 (OVCAR-5): 2.7 µM (inactive) | GI50 (TK-10): 3.07 µM (inactive) | GI50 (ACHN): 1.44 µM (inactive) | GI50 (SR): 646 nM (active) | GI50 (BT-549): 1.39 µM (inactive) | GI50 (UO-31): 1.76 µM (inactive) | GI50 (NCI-H23): 1.63 µM (inactive) | GI50 (SF-539): 0.482 µM (active) | GI50 (CAKI-1): 1.36 µM (inactive) | GI50 (SK-OV-3): 20.4 µM (inactive) | GI50 (IGROV-1): 2.79 µM (inactive) | GI50 (NCI-H460): 3.3 µM (inactive) | GI50 (LOX IMVI): 2.18 µM (inactive) | GI50 (HCT-15): 631 nM | GI50 (Malme-3M): 1.46 µM (inactive) | GI50 (NCI-H226): 6.58 µM (inactive) | GI50 (RXF 393): 757 nM (active) | GI50 (M14): 2.08 µM (inactive) | GI50 (HCT-116): 1.22 µM (inactive) | GI50 (OVCAR-8): 1.43 µM (inactive) | GI50 (T47D): 2.55 µM (inactive) | GI50 (DU-145): 3.61 µM (inactive) | GI50 (K562): 783 nM (active) | GI50 (SW-620): 603 nM (active) | GI50 (SK-MEL-28): 3.34 µM (inactive) | GI50 (HT-29): 1.73 µM (inactive) | GI50 (HCC 2998): 1.61 µM (inactive) | GI50 (Hs-578T): 4.09 µM (inactive) | GI50 (NCI/ADR-RES): 2.19 µM (inactive) | GI50 (A498): 2.9 µM (inactive) | GI50 (SNB-19): 16.4 µM (inactive) | GI50 (786-0): 1.63 µM (inactive) | GI50 (NCI-H522): 243 nM (active) | GI50 (SK-MEL-5): 1.29 µM (inactive) | GI50 (OVCAR-4): 4.01 µM (inactive) | GI50 (HL-60): 592 nM (active) | GI50 (MCF7): 1.16 µM (inactive) | GI50 (UACC-62): 1.62 µM (inactive) | GI50 (HOP-62): 9.4 µM (inactive) | GI50 (UACC-257): 1.84 µM (inactive) | GI50 (SN12C): 1.32 µM (inactive) | GI50 (EKVX): 2.42 µM (inactive) | GI50 (RPMI-8226): 356 nM (active) | GI50 (SK-MEL-2): 2.47 µM (inactive)

CC(C)C(Cl)CC/C(CBr)=C(\Cl)CCl (stereo not drawn)
GI50 (PC-3): 10.7 µM (inactive) | GI50 (KM12): 3.21 µM (inactive) | GI50 (MOLT-4): 1730 nM (inactive) | GI50 (MDA-MB-231): 3.3 µM (inactive) | GI50 (MDA-N): 2.05 µM (inactive) | GI50 (SNB-75): 2.01 µM (inactive) | GI50 (OVCAR-3): 4.72 µM (inactive) | GI50 (MDA-MB-435): 3.2 µM (inactive) | GI50 (COLO 205): 5460 nM (inactive) | GI50 (CCRF-CEM): 225 nM (active) | GI50 (A549): 17.8 µM (inactive) | GI50 (U-251): 10.6 µM (inactive) | GI50 (SF-295): 16.3 µM (inactive) | GI50 (HOP-92): 2.25 µM (inactive) | GI50 (SF-268): 7.18 µM (inactive) | GI50 (OVCAR-5): 15.4 µM (inactive) | GI50 (TK-10): 14.5 µM (inactive) | GI50 (ACHN): 16 µM (inactive) | GI50 (SR): 1690 nM (inactive) | GI50 (BT-549): 2.05 µM (inactive) | GI50 (UO-31): 16.9 µM (inactive) | GI50 (NCI-H23): 2.67 µM (inactive) | GI50 (SF-539): 15.7 µM (inactive) | GI50 (CAKI-1): 7.08 µM (inactive) | GI50 (SK-OV-3): 6.1 µM (inactive) | GI50 (IGROV-1): 1.77 µM (inactive) | GI50 (NCI-H460): 13.4 µM (inactive) | GI50 (LOX IMVI): 0.24 µM (active) | GI50 (HCT-15): 2890 nM | GI50 (Malme-3M): 6.71 µM (inactive) | GI50 (NCI-H226): 6.7 µM (inactive) | GI50 (RXF 393): 2800 nM (inactive) | GI50 (M14): 1.85 µM (inactive) | GI50 (HCT-116): 2.86 µM (inactive) | GI50 (OVCAR-8): 2 µM (inactive) | GI50 (T47D): 1.5 µM (inactive) | GI50 (DU-145): 13.4 µM (inactive) | GI50 (K562): 723 nM (active) | GI50 (SW-620): 1800 nM (inactive) | GI50 (SK-MEL-28): 3.37 µM (inactive) | GI50 (HT-29): 4.75 µM (inactive) | GI50 (HCC 2998): 13.7 µM (inactive) | GI50 (Hs-578T): 2.9 µM (inactive) | GI50 (NCI/ADR-RES): 10.9 µM (inactive) | GI50 (A498): 19.2 µM (inactive) | GI50 (SNB-19): 14.6 µM (inactive) | GI50 (786-0): 2.22 µM (inactive) | GI50 (NCI-H522): 794 nM (active) | GI50 (SK-MEL-5): 2.02 µM (inactive) | GI50 (OVCAR-4): 2.27 µM (inactive) | GI50 (HL-60): 540 nM (active) | GI50 (MCF7): 0.646 µM (active) | GI50 (UACC-62): 2.24 µM (inactive) | GI50 (HOP-62): 17.1 µM (inactive) | GI50 (UACC-257): 2.79 µM (inactive) | GI50 (SN12C): 4.73 µM (inactive) | GI50 (EKVX): 19.6 µM (inactive) | GI50 (RPMI-8226): 2270 nM (inactive) | GI50 (SK-MEL-2): 2.1 µM (inactive)

Reference: ChEMBL document CHEMBL1201862, “PubChem BioAssay data set” (2004)
